Test results as given in US20080076729A1, “Interferon-beta gene therapy using an improved, regulated expression system” (Schering Aktiengesellachaft, priority 2005, published 2008).

Assays:
SJL mice with acute EAE = assay: Mouse acute EAE model, daily clinical scoring; type: in vivo; details: Mesopram 9 mg/kg, Prednisolone 2.5 mg/kg, IP twice daily
GAL-4 DBS = details: read-out: Kd for binding; cited from earlier work

Compound | clinical scores of EAE, positive controls (SJL mice with acute EAE; first study) | clinical scores of EAE, positive controls (SJL mice with acute EAE; second study) | Kd (GAL-4 DBS) [nM]
CCCOc1cc([C@]2(C)CNC(=O)O2)ccc1OC [Mesopram, reference compound] | significantly decreased clinical scores | significantly decreased clinical scores | 
C[C@]12C=CC(=O)C=C1CC[C@@H]1[C@@H]2[C@@H](O)C[C@@]2(C)[C@H]1CC[C@]2(O)C(=O)CO [Prednisolone, reference compound] | significantly decreased clinical scores | significantly decreased clinical scores | 
GAL-4 residues 1-100: N-terminal DNA binding fragment of yeast GAL-4 protein |  |  | 3
